Earlier results, collected in PMC9230590, “Pharmacokinetics and Tissue Distribution of Enavogliflozin in Mice and Rats” (Pharmaceutics, 2022).
Read-outs that look alike come from different tables or passages of the source.

What was measured:
HbA1c = details: cited from earlier work
[1] = cited from earlier work
[2] = design: method as in PMID 32183468; details: mice; cited from earlier work
[3] = rats and humans, single oral dose of [14C]dapagliflozin; cited from earlier work
[4] = single oral administration of [14C]canagliflozin
[5] = single oral administration of [14C]ipragliflozin

Cc1ccc([C@@H]2O[C@H](CO)[C@@H](O)[C@H](O)[C@H]2O)cc1Cc1ccc(-c2ccc(F)cc2)s1 [canagliflozin]
reduction of HbA1c (HbA1c; untreated type 2 diabetic (T2DM) patients): 0.97% | fecal recovery of radioactivity [1, 4]: 85.4–93.7% | hydroxylated metabolites in fecal recovery [1, 4]: 7.6–64.3% | unchanged drug in fecal recovery [1, 4]: 3.5–38.7%

CCOc1ccc(Cc2cc([C@@H]3O[C@H](CO)[C@@H](O)[C@H](O)[C@H]3O)ccc2Cl)cc1 [dapagliflozin]
ratio of AUC in kidney to AUC in plasma [2]: 64.6 ± 31.8 | reduction in HbA1c values (HbA1c; monotherapy 2.5–10 mg, once daily for 24 weeks, untreated T2DM patients): 0.67–0.84% | reduction of mean HbA1c compared with conventional monotherapy (HbA1c; with conventional anti-diabetes medication, meta-analysis): 0.54% | drug-related radioactivity (parent and glucuronide metabolite) recovered in urine [3]: more than 90%

OC[C@H]1O[C@@H](c2ccc(Cl)c(Cc3ccc(O[C@H]4CCOC4)cc3)c2)[C@H](O)[C@@H](O)[C@@H]1O [empagliflozin]
reduction of HbA1c (HbA1c; empagliflozin-treated patients): 0.74–0.85%

OC[C@H]1O[C@@H](c2ccc(F)c(Cc3cc4ccccc4s3)c2)[C@H](O)[C@@H](O)[C@@H]1O [ipragliflozin]
ratio of AUC in kidney to AUC in plasma [2]: 38.4 ± 5.3 | cumulative fecal recovery of drug-related radioactivity [1, 5]: 86.9% ± 2.6% | glucuronide metabolite identified in feces [1, 5]: about 64% | unchanged drug identified in feces [1, 5]: less than 5%
